Test system: Spodoptera littoralis (Egyptian cotton leaf worm)
Assay: Spodoptera littoralis (Egyptian cotton leaf worm) feeding/contact activity assay on cotton leaf discs
Format: in vivo
Conditions: for Mortality (%) Observed (%): single active ingredient, L1 larvae, 3 days after infestation; for Mortality (%) Expected (%): component B alone, value printed in the Expected column
Text: A synergistic effect exists whenever the action of an active ingredient combination is greater than the sum of the actions of the individual components. The action to be expected E for a given active ingredient combination obeys the so-called COLBY formula and can be calculated as follows (COLBY, S. R. “Calculating synergistic and antagonistic responses of herbicide combination”. Weeds, Vol. 15, pages 20-22 1967):
ppm=milligrams of active ingredient (a.i.) per liter X=% action by first active ingredient using p ppm of the active ingredient Y=% action by second active ingredient using q ppm of the active ingredient.
According to Colby, the expected (additive) action of active ingredients A+B using p+q ppm of active ingredient is
If the action actually observed O is greater than the expected action E, then the action of the combination is super-additive, i.e. there is a synergistic effect. In mathematical terms, synergism corresponds to a positive value for the difference of (O-E). In the case of purely complementary addition of activities (expected activity), said difference (O-E) is zero. A negative value of said difference (O-E) signals a loss of activity compared to the expected activity.
The synergistic biological activity of combinations of component (A) and component (B) as disclosed herein was assessed using a Spodoptera littoralis (Egyptian cotton leaf worm) feeding/contact activity assay. Cotton leaf discs were placed onto agar in 24-well microtiter plates and sprayed with aqueous test solutions prepared from 10′000 ppm DMSO stock solutions. After drying the leaf discs were infested with L1 larvae. The samples were assessed for mortality 3 days after infestation.

SMILES: O=C(Nc1ccc(F)c(NC(=O)C(F)F)c1F)c1cc(NC(=O)[C@H]2[C@H](c3cc(C(F)(F)F)cc(C(F)(F)F)c3)C2(Cl)Cl)ccc1Cl [A-1]
- Mortality (%) Observed (%) ([AI] 0.016 mg/L): 0%
- Mortality (%) Observed (%) ([AI] 0.031 mg/L): 0%
- Mortality (%) Observed (%) ([AI] 0.062 mg/L): 0%
- Mortality (%) Observed (%) ([AI] 0.125 mg/L): 0%
- Mortality (%) Observed (%) ([AI] 0.25 mg/L): 80%
- Mortality (%) Observed (%) ([AI] 0.5 mg/L): 100%

SMILES: C[n+]1c([O-])c(-c2ccccc2)c(=O)n2c1SC[C@@H]2c1cnc(Cl)s1 [B-4, fenmezoditiaz]
- Mortality (%) Observed (%) ([AI] 15.625 mg/L): 0%
- Mortality (%) Observed (%) ([AI] 31.25 mg/L): 0%
- Mortality (%) Observed (%) ([AI] 62.5 mg/L): 0%

SMILES: CCS(=O)(=O)c1cccnc1-c1cnc(OCC(F)(F)C(F)(F)F)cn1 [B-10, 2-(3-ethylsulfonyl-2-pyridyl)-5-(2,2,3,3,3-pentafluoropropoxy)pyrazine]
- Mortality (%) Observed (%) ([AI] 0.625 mg/L): 0%
- Mortality (%) Observed (%) ([AI] 1.25 mg/L): 10%
- Mortality (%) Observed (%) ([AI] 2.5 mg/L): 50%
- Mortality (%) Observed (%) ([AI] 5 mg/L): 100%
- Mortality (%) Observed (%) ([AI] 10 mg/L): 100%

SMILES: CCN(C(=O)c1cnn(C(C)C(C)C)c1C)c1ccnnc1 (stereo not drawn) [B-17, dimpropyridaz]
- Mortality (%) Observed (%) ([AI] 15.625 mg/L): 0%
- Mortality (%) Observed (%) ([AI] 31.25 mg/L): 0%
- Mortality (%) Observed (%) ([AI] 62.5 mg/L): 0%
- Mortality (%) Observed (%) ([AI] 125 mg/L): 0%

SMILES: Cc1cc(Cl)cc(C)c1C1=C(O)C2(CCC3(CC2)OCCO3)NC1=O [B-18, spidoxamat]
- Mortality (%) Expected (%) ([AI] 7.812 mg/L): 0%
- Mortality (%) Expected (%) ([AI] 15.625 mg/L): 0%
- Mortality (%) Expected (%) ([AI] 31.25 mg/L): 0%

SMILES: O=c1c(-c2cccc(C(F)(F)F)c2)c([O-])[n+](Cc2cncnc2)c2ccccn12 [B-42, triflumezopyrim]
- Mortality (%) Observed (%) ([AI] 15.625 mg/L): 0%
- Mortality (%) Observed (%) ([AI] 31.25 mg/L): 0%
- Mortality (%) Observed (%) ([AI] 62.5 mg/L): 0%
- Mortality (%) Observed (%) ([AI] 125 mg/L): 20%
- Mortality (%) Observed (%) ([AI] 250 mg/L): 20%

SMILES: CNC(=O)c1cc(Cl)cc(C)c1NC(=O)c1cc(Br)nn1-c1ncccc1Cl [B-46, chlorantraniliprole]
- Mortality (%) Observed (%) ([AI] 0.062 mg/L): 0%
- Mortality (%) Observed (%) ([AI] 0.125 mg/L): 0%
- Mortality (%) Observed (%) ([AI] 0.25 mg/L): 0%
- Mortality (%) Observed (%) ([AI] 0.5 mg/L): 100%

SMILES: CC(c1ccc(C(F)(F)F)nc1)S(C)(=O)=NC#N (stereo not drawn) [B-55, sulfoxaflor]
- Mortality (%) Observed (%) ([AI] 62.5 mg/L): 0%
- Mortality (%) Observed (%) ([AI] 125 mg/L): 0%
- Mortality (%) Observed (%) ([AI] 250 mg/L): 10%

— US20240389596A1, “INSECT, ACARINA AND NEMATODE PEST CONTROL” (priority 2021, published 2024)
